In this assay the target is ROMK (Kir1.1) channel (Homo sapiens (Human), UniProt P48048). The assay is described as follows: Thallium Flux Assay. It counts as cell-based. Here is the method:
The following Thallium Flux Assay was performed on each of the final product compounds in the Examples.
A Thallium Flux Assay was performed on the compounds of the Examples. This assay has been described previously; see, e.g., PCT Published Application WO 2013/062900.
ROMK (Kir1.1) channel, sequence (P48048 whole entry): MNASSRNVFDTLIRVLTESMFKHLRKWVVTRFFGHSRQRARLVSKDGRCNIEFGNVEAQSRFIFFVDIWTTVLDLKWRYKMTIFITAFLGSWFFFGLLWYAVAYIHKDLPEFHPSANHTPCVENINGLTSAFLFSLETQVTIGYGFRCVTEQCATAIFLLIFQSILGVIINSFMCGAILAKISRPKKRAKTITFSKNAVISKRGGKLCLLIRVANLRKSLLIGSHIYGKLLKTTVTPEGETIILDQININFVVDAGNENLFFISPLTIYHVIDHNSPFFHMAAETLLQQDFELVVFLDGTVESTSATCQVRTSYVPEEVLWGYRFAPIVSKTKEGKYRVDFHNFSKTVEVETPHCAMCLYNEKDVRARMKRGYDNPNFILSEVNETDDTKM
Usually IC50 stands for the midpoint of a concentration-inhibition curve. Higher therefore signals lower potency. `CC1=C(N2CCC3(CCN(C(CO)c4ccc5c(ccc6nnnn65)c4)CC3)C2=O)COC1=O` (racemic) [Example 28, 8-(2-hydroxy-1-(tetrazolo[1,5-a]quinolin-7-yl)ethyl)-2-(4-methyl-5-oxo-2,5-dihydrofuran-3-yl)-2,8-diazaspiro[4.5]decan-1-one] had an IC50 of 18 nM.
Compound `CC1=C(N2CCC3(CCN(C[C@H](O)c4ccc5c(c4Cl)Cn4nnnc4-5)CC3)C2=O)COC1=O` [Example 1, (R)-8-(2-(6-chloro-5H-tetrazolo[5,1-a]isoindol-7-yl)-2-hydroxyethyl)-2-(4-methyl-5-oxo-2,5-dihydrofuran-3-yl)-2,8-diazaspiro[4.5]decan-1-one] registered an IC50 of 31 nM.
Turning to `CC1=C(N2CCC3(CCN(C[C@@H](O)c4ccc5c(c4Cl)Cn4nnnc4-5)CC3)C2=O)COC1=O` [Example 2, (S)-8-(2-(6-chloro-5H-tetrazolo[5,1-a]isoindol-7-yl)-2-hydroxyethyl)-2-(4-methyl-5-oxo-2,5-dihydrofuran-3-yl)-2,8-diazaspiro[4.5]decan-1-one], the IC50 turned out to be 9 nM. Against the preceding compound, the IC50 is about 3.4-fold lower.
As for `CC1=C(N2CC[C@@]3(CCN(C[C@H](O)c4ccc5c(c4)Cn4nnnc4-5)C[C@@H]3F)C2=O)COC1=O` [Example 3, (5S,6R)-6-fluoro-8-((R)-2-hydroxy-2-(5H-tetrazolo[5,1-a]isoindol-7-yl)ethyl)-2-(4-methyl-5-oxo-2,5-dihydrofuran-3-yl)-2,8-diazaspiro[4.5]decan-1-one], the figure is 35 nM.
`CC1=C(N2CC[C@]3(CCN(C[C@H](O)c4ccc5c(c4)Cn4nnnc4-5)C[C@H]3F)C2=O)COC1=O` [Example 4, (5R,6S)-6-fluoro-8-((R)-2-hydroxy-2-(5H-tetrazolo[5,1-a]isoindol-7-yl)ethyl)-2-(4-methyl-5-oxo-2,5-dihydrofuran-3-yl)-2,8-diazaspiro[4.5]decan-1-one] came in with an IC50 of 43 nM.
For `CC1=C(N2CC[C@@]3(CCN(C[C@@H](O)c4ccc5c(c4)Cn4nnnc4-5)C[C@@H]3F)C2=O)COC1=O` [Example 5, (5S,6R)-6-fluoro-8-((S)-2-hydroxy-2-(5H-tetrazolo[5,1-a]isoindol-7-yl)ethyl)-2-(4-methyl-5-oxo-2,5-dihydrofuran-3-yl)-2,8-diazaspiro[4.5]decan-1-one] the value was 111 nM; for `CC1=C(N2CC[C@]3(CCN(C[C@@H](O)c4ccc5c(c4)Cn4nnnc4-5)C[C@H]3F)C2=O)COC1=O` [Example 6, (5R,6S)-6-fluoro-8-((S)-2-hydroxy-2-(5H-tetrazolo[5,1-a]isoindol-7-yl)ethyl)-2-(4-methyl-5-oxo-2,5-dihydrofuran-3-yl)-2,8-diazaspiro[4.5]decan-1-one], 40 nM; for `CC1=C(N2CCC3(CCN(C[C@H](O)c4ccc5c(c4)CCc4nnnn4-5)CC3)C2=O)COC1=O` [Example 7A, (R)-8-(2-(4,5-dihydrotetrazolo[1,5-a]quinolin-7-yl)-2-hydroxyethyl)-2-(4-methyl-5-oxo-2,5-dihydrofuran-3-yl)-2,8-diazaspiro[4.5]decan-1-one], 34 nM.
As for `CC1=C(N2CCC3(CCN(C[C@@H](O)c4ccc5c(c4)CCc4nnnn4-5)CC3)C2=O)COC1=O` [Example 7B, (S)-8-(2-(4,5-dihydrotetrazolo[1,5-a]quinolin-7-yl)-2-hydroxyethyl)-2-(4-methyl-5-oxo-2,5-dihydrofuran-3-yl)-2,8-diazaspiro[4.5]decan-1-one], the figure is 38 nM; as for `CC1=C(N2CCC3(CCN(C[C@H](O)c4ccc5c(c4)Cn4nnnc4-5)CC3)C2=O)COC1=O` [Example 8, (R)-8-(2-hydroxy-2-(5H-tetrazolo[5,1-a]isoindol-7-yl)ethyl)-2-(4-methyl-5-oxo-2,5-dihydrofuran-3-yl)-2,8-diazaspiro[4.5]decan-1-one], 13 nM.
As to `CC1=C(N2CCC3(CCN(C[C@@H](O)c4ccc5c(c4)Cn4nnnc4-5)CC3)C2=O)COC1=O` [Example 9, (S)-8-(2-hydroxy-2-(5H-tetrazolo[5,1-a]isoindol-7-yl)ethyl)-2-(4-methyl-5-oxo-2,5-dihydrofuran-3-yl)-2,8-diazaspiro[4.5]decan-1-one], it took 19 nM to reach half-maximal inhibition (IC50).
In the case of `CC1=C(N2CCC3(CCN(C[C@H](O)c4ccc5c(c4C)CCc4nnnn4-5)CC3)C2=O)COC1=O` [Example 10, (R)-8-(2-hydroxy-2-(6-methyl-4,5-dihydrotetrazolo[1,5-a]quinolin-7-yl)ethyl)-2-(4-methyl-5-oxo-2,5-dihydrofuran-3-yl)-2,8-diazaspiro[4.5]decan-1-one], the IC50 was 46 nM.
Turning to `CC1=C(N2CCC3(CCN(C[C@@H](O)c4ccc5c(c4C)CCc4nnnn4-5)CC3)C2=O)COC1=O` [Example 11, (S)-8-(2-hydroxy-2-(6-methyl-4,5-dihydrotetrazolo[1,5-a]quinolin-7-yl)ethyl)-2-(4-methyl-5-oxo-2,5-dihydrofuran-3-yl)-2,8-diazaspiro[4.5]decan-1-one], the IC50 is 47 nM.
For `C[C@@H]1CC2(CCN(C[C@H](O)c3ccc4c(c3)CCc3nnnn3-4)CC2)C(=O)N1C1=CC(=O)OC1` [Example 12, (R)-8-((R)-2-(4,5-dihydrotetrazolo[1,5-a]quinolin-7-yl)-2-hydroxyethyl)-3-methyl-2-(5-oxo-2,5-dihydrofuran-3-yl)-2,8-diazaspiro[4.5]decan-1-one] the value was 188 nM.
Turning to `C[C@H]1CC2(CCN(C[C@H](O)c3ccc4c(c3)CCc3nnnn3-4)CC2)C(=O)N1C1=CC(=O)OC1` [Example 13, (S)-8-((R)-2-(4,5-dihydrotetrazolo[1,5-a]quinolin-7-yl)-2-hydroxyethyl)-3-methyl-2-(5-oxo-2,5-dihydrofuran-3-yl)-2,8-diazaspiro[4.5]decan-1-one], half-maximal inhibition (IC50) required 23 nM.
As for `C[C@@H]1CC2(CCN(C[C@@H](O)c3ccc4c(c3)CCc3nnnn3-4)CC2)C(=O)N1C1=CC(=O)OC1` [Example 14, (R)-8-((S)-2-(4,5-dihydrotetrazolo[1,5-a]quinolin-7-yl)-2-hydroxyethyl)-3-methyl-2-(5-oxo-2,5-dihydrofuran-3-yl)-2,8-diazaspiro[4.5]decan-1-one], the figure is 284 nM.
`C[C@H]1CC2(CCN(C[C@@H](O)c3ccc4c(c3)CCc3nnnn3-4)CC2)C(=O)N1C1=CC(=O)OC1` [Example 15, (S)-8-((S)-2-(4,5-dihydrotetrazolo[1,5-a]quinolin-7-yl)-2-hydroxyethyl)-3-methyl-2-(5-oxo-2,5-dihydrofuran-3-yl)-2,8-diazaspiro[4.5]decan-1-one] displayed an IC50 of 14 nM.
As for `C[C@@H]1CC2(CCN(C[C@H](O)c3ccc4c(ccc5nnnn54)c3)CC2)C(=O)N1C1=CC(=O)OC1` [Example 16, (R)-8-((R)-2-hydroxy-2-(tetrazolo[1,5-a]quinolin-7-yl)ethyl)-3-methyl-2-(5-oxo-2,5-dihydrofuran-3-yl)-2,8-diazaspiro[4.5]decan-1-one], the figure is 32 nM.
On to `C[C@H]1CC2(CCN(C[C@H](O)c3ccc4c(ccc5nnnn54)c3)CC2)C(=O)N1C1=CC(=O)OC1` [Example 17, (S)-8-((R)-2-hydroxy-2-(tetrazolo[1,5-a]quinolin-7-yl)ethyl)-3-methyl-2-(5-oxo-2,5-dihydrofuran-3-yl)-2,8-diazaspiro[4.5]decan-1-one], for which half-maximal inhibition (IC50) was put at 20 nM. Against the preceding compound, the IC50 is about 1.6-fold lower.
For `C[C@@H]1CC2(CCN(C[C@@H](O)c3ccc4c(ccc5nnnn54)c3)CC2)C(=O)N1C1=CC(=O)OC1` [Example 18, (R)-8-((S)-2-hydroxy-2-(tetrazolo[1,5-a]quinolin-7-yl)ethyl)-3-methyl-2-(5-oxo-2,5-dihydrofuran-3-yl)-2,8-diazaspiro[4.5]decan-1-one] the value was 7 nM.
As for `C[C@H]1CC2(CCN(C[C@@H](O)c3ccc4c(ccc5nnnn54)c3)CC2)C(=O)N1C1=CC(=O)OC1` [Example 19, (S)-8-((S)-2-hydroxy-2-(tetrazolo[1,5-a]quinolin-7-yl)ethyl)-3-methyl-2-(5-oxo-2,5-dihydrofuran-3-yl)-2,8-diazaspiro[4.5]decan-1-one], the half-maximal inhibitory concentration (IC50) is 10 nM.
For `CC1=C(N2CCC3(CCN(C[C@H](O)c4ccc5c(ccc6nnnn65)c4)CC3)C2=O)COC1=O` [Example 20, (R)-8-(2-hydroxy-2-(tetrazolo[1,5-a]quinolin-7-yl)ethyl)-2-(4-methyl-5-oxo-2,5-dihydrofuran-3-yl)-2,8-diazaspiro[4.5]decan-1-one], 11 nM corresponded to half-maximal inhibition (IC50). The IC50 values of the last two compounds are within 1.5-fold of each other.
On to `CC1=C(N2CCC3(CCN(C[C@@H](O)c4ccc5c(ccc6nnnn65)c4)CC3)C2=O)COC1=O` [Example 21, (S)-8-(2-hydroxy-2-(tetrazolo[1,5-a]quinolin-7-yl)ethyl)-2-(4-methyl-5-oxo-2,5-dihydrofuran-3-yl)-2,8-diazaspiro[4.5]decan-1-one], for which the IC50 was 19 nM.
Compound `CC1=C(N2CCC3(CCN(C[C@@H](O)c4ccc5c(ccc6nnnn65)n4)CC3)C2=O)COC1=O` [Example 22, (R)-8-(2-hydroxy-2-(tetrazolo[1,5-a][1,5]naphthyridin-7-yl)ethyl)-2-(4-methyl-5-oxo-2,5-dihydrofuran-3-yl)-2,8-diazaspiro[4.5]decan-1-one] showed a 50% inhibitory concentration (IC50) of 185 nM. This IC50 is about 9.7-fold higher than that of the compound before.
On to `CC1=C(N2CCC3(CCN(C[C@H](O)c4ccc5c(c4C)Cn4nnnc4-5)CC3)C2=O)COC1=O` [Example 23, (R)-8-(2-hydroxy-2-(6-methyl-5H-tetrazolo[5,1-a]isoindol-7-yl)ethyl)-2-(4-methyl-5-oxo-2,5-dihydrofuran-3-yl)-2,8-diazaspiro[4.5]decan-1-one], for which the IC50 amounted to 17 nM.
In the case of `CC1=C(N2CCC3(CCN(C[C@@H](O)c4ccc5c(c4C)Cn4nnnc4-5)CC3)C2=O)COC1=O` [Example 24, (S)-8-(2-hydroxy-2-(6-methyl-5H-tetrazolo[5,1-a]isoindol-7-yl)ethyl)-2-(4-methyl-5-oxo-2,5-dihydrofuran-3-yl)-2,8-diazaspiro[4.5]decan-1-one], the IC50 amounted to 16 nM.
As for `CC1=C(N2CCC3(CCN(C[C@H](O)c4cc5c(cc4C4CC4)-c4nnnn4C5)CC3)C2=O)COC1=O` [Example 25, (R)-8-(2-(8-cyclopropyl-5H-tetrazolo[5,1-a]isoindol-7-yl)-2-hydroxyethyl)-2-(4-methyl-5-oxo-2,5-dihydrofuran-3-yl)-2,8-diazaspiro[4.5]decan-1-one], the midpoint of inhibition, the IC50, lay at 128 nM.
